Source: the NIST ThermoML archive (doi:10.1021/je049610v)

Legend:
[1] = xn = mol fraction of the nth substance listed; details: 101 kPa, Liquid
[2] = refractive index (Na D-line) (dimensionless); xn = mol fraction of the nth substance listed; details: 101 kPa, Liquid

ClC(Cl)C(Cl)Cl [1,1,2,2-tetrachloroethane] + COc1ccccc1
Details | mass density, 298.15 K [kg/m3] | mass density, 303.15 K [kg/m3] | mass density, 308.15 K [kg/m3] | refractive index, 298.15 K | refractive index, 303.15 K | refractive index, 308.15 K | speed of sound, 298.15 K [m/s] | viscosity, 298.15 K [mPa·s] | viscosity, 303.15 K [mPa·s] | viscosity, 308.15 K [mPa·s]
[1], x2 = 0 | 1587.8 | 1580.6 | 1573.3 | – | – | – | 1153 | 1.591 | 1.471 | 1.361
[1], x2 = 0.1003 | 1526.3 | 1519.4 | 1512.6 | – | – | – | 1172 | 1.555 | 1.439 | 1.323
[1], x2 = 0.2021 | 1464.3 | 1457.7 | 1451.2 | – | – | – | 1193 | 1.518 | 1.404 | 1.29
[1], x2 = 0.303 | 1403.1 | 1396.9 | 1390.6 | – | – | – | 1214 | 1.47 | 1.362 | 1.253
[1], x2 = 0.3939 | 1348.3 | 1342.2 | 1336.2 | – | – | – | 1235 | 1.419 | 1.315 | 1.21
[1], x2 = 0.4986 | 1285.5 | 1279.9 | 1274 | – | – | – | 1262 | 1.355 | 1.255 | 1.155
[1], x2 = 0.5975 | 1226.5 | 1221.1 | 1215.6 | – | – | – | 1289 | 1.292 | 1.196 | 1.1
[1], x2 = 0.6972 | 1167.2 | 1162.1 | 1156.9 | – | – | – | 1317 | 1.224 | 1.131 | 1.038
[1], x2 = 0.7983 | 1107.6 | 1102.7 | 1097.7 | – | – | – | 1347 | 1.149 | 1.064 | 0.979
[1], x2 = 0.9012 | 1047 | 1042.8 | 1037.4 | – | – | – | 1379 | 1.074 | 0.994 | 0.914
[2], x2 = 0 | – | – | – | 1.4922 | 1.4894 | 1.4865 | – | – | – | –
[2], x2 = 0.1003 | – | – | – | 1.4943 | 1.4915 | 1.4887 | – | – | – | –
[2], x2 = 0.2021 | – | – | – | 1.4966 | 1.4937 | 1.4909 | – | – | – | –
[2], x2 = 0.303 | – | – | – | 1.4989 | 1.496 | 1.4931 | – | – | – | –
[2], x2 = 0.3939 | – | – | – | 1.5009 | 1.498 | 1.4952 | – | – | – | –
[2], x2 = 0.4986 | – | – | – | 1.5032 | 1.5005 | 1.4977 | – | – | – | –
[2], x2 = 0.5975 | – | – | – | 1.5055 | 1.5028 | 1.5 | – | – | – | –
[2], x2 = 0.6972 | – | – | – | 1.508 | 1.5052 | 1.5023 | – | – | – | –
[2], x2 = 0.7983 | – | – | – | 1.5105 | 1.5076 | 1.505 | – | – | – | –
[2], x2 = 0.9012 | – | – | – | 1.5129 | 1.51 | 1.5072 | – | – | – | –

C1COCCO1 [1,4-dioxane] + COc1ccccc1
x2 = 0
Details | mass density, 298.15 K [kg/m3] | mass density, 303.15 K [kg/m3] | mass density, 308.15 K [kg/m3] | refractive index, 298.15 K | refractive index, 303.15 K | refractive index, 308.15 K | speed of sound, 298.15 K [m/s] | viscosity, 298.15 K [mPa·s] | viscosity, 303.15 K [mPa·s] | viscosity, 308.15 K [mPa·s]
[1] | 1028.3 | 1023.1 | 1017.8 | – | – | – | 1345 | 1.415 | 1.171 | 1.068
[2] | – | – | – | 1.4181 | 1.4176 | 1.4141 | – | – | – | –

OCCCl [1-chloro-2-hydroxyethane] + COc1ccccc1
Details | mass density, 298.15 K [kg/m3] | mass density, 303.15 K [kg/m3] | mass density, 308.15 K [kg/m3] | refractive index, 298.15 K | refractive index, 303.15 K | refractive index, 308.15 K | speed of sound, 298.15 K [m/s] | viscosity, 298.15 K [mPa·s] | viscosity, 303.15 K [mPa·s] | viscosity, 308.15 K [mPa·s]
[1], x2 = 0 | 1200.9 | 1192.5 | 1187.1 | – | – | – | 1358 | 3.104 | 2.669 | 2.347
[1], x2 = 0.103 | 1165.8 | 1158.6 | 1153.9 | – | – | – | 1365 | 2.6 | 2.334 | 2.068
[1], x2 = 0.209 | 1134.5 | 1129 | 1123.7 | – | – | – | 1372 | 2.13 | 1.943 | 1.755
[1], x2 = 0.313 | 1107.6 | 1102.5 | 1097.5 | – | – | – | 1378 | 1.778 | 1.631 | 1.485
[1], x2 = 0.395 | 1088.7 | 1083.9 | 1078.8 | – | – | – | 1382 | 1.583 | 1.452 | 1.32
[1], x2 = 0.49 | 1068.8 | 1064.3 | 1058.9 | – | – | – | 1388 | 1.418 | 1.289 | 1.16
[1], x2 = 0.59 | 1049.8 | 1044.8 | 1040.1 | – | – | – | 1392 | 1.269 | 1.158 | 1.046
[1], x2 = 0.69 | 1032.5 | 1027.5 | 1023 | – | – | – | 1397 | 1.155 | 1.064 | 0.972
[1], x2 = 0.797 | 1015.9 | 1010 | 1006.6 | – | – | – | 1402 | 1.087 | 1.004 | 0.921
[1], x2 = 0.898 | 1001.9 | 996.1 | 992.5 | – | – | – | 1406 | 1.007 | 0.936 | 0.865
[2], x2 = 0 | – | – | – | 1.4411 | 1.438 | 1.4326 | – | – | – | –
[2], x2 = 0.103 | – | – | – | 1.4495 | 1.4793 | 1.4468 | – | – | – | –
[2], x2 = 0.209 | – | – | – | 1.461 | 1.4586 | 1.4564 | – | – | – | –
[2], x2 = 0.313 | – | – | – | 1.4712 | 1.4684 | 1.4652 | – | – | – | –
[2], x2 = 0.395 | – | – | – | 1.4767 | 1.4745 | 1.4723 | – | – | – | –
[2], x2 = 0.49 | – | – | – | 1.4836 | 1.4807 | 1.4778 | – | – | – | –
[2], x2 = 0.59 | – | – | – | 1.4899 | 1.4879 | 1.4859 | – | – | – | –
[2], x2 = 0.69 | – | – | – | 1.4978 | 1.4951 | 1.4923 | – | – | – | –
[2], x2 = 0.797 | – | – | – | 1.5034 | 1.5011 | 1.4999 | – | – | – | –
[2], x2 = 0.898 | – | – | – | 1.5094 | 1.5067 | 1.5041 | – | – | – | –
